# Assay: recombinant UMI read abundance after kanamycin selection (control-corrected) (log10(CPM+1)); higher = more efficient recombination; extreme values may be limits of the assay; sequences stand for … in AGTGCAGAGAAAATCGGCCAGTTTTCTCTGCCTGCAGTCCGCATGCCGTGGGACCCCTTGGGTTCTAACCTGTTGCCTAGATTTATGCAGCGGACTGCCTTTCTCCCAAAGTGATAAACCGG…AGGTTGGTTTCACT; site = the 11-nt donor
# Procedure, shortened: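 In Escherichia coli, a pool of donor and donor-binding-loop pairs, each with a 12-nt UMI, was tested for the IS621 bridge recombinase. Plating was on IPTG (0.07 mM) plus kanamycin, or without selection, in two replicates. Recombinant UMIs were amplified by PCR across the donor–target junction and sequenced, and counts were reported as log10(CPM+1) after averaging and control-derived scaling.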
# 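Further: IS621 bridge recombinase in Escherichia coli cells against a fixed T5 target plasmid.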
row,Sequence,recombinant UMI read abundance (log10)
1,GTCCCATCATGGACCGGTTTTCCCGGTAATCCGTATTTGCG (site GTCCCATCTCG),1.31
2,GTCCCCACATGGACCGGTTTTCCCGGTAATCCGTATTTGTA (site GTCCCCACTTA),1.14
3,GTCCGACCATGGACCGGTTTTCCCGGTAATCCGTATTTGCA (site GTCCGACCTTG),0
4,GTCCGAGCATGGACCGGTTTTCCCGGTAATCCGTATTTGCA (site GTACGAGCTTG),0
5,GTCCGAGCATGGACCGGTTTTCCCGGTAATCCGTATTTGCA (site GTCCGAGCTTG),1.59
6,GTCCGAGCATGGACCGGTTTTCCCGGTAATCCGTATTTGCA (site GTGCGAGCTTG),0.297
7,GTCCGAGCATGGACCGGTTTTCCCGGTAATCCGTATTTGCA (site GTTCGAGCTTG),0
8,GTCCTGCCATGGACCGGTTTTCCCGGTAATCCGTATTTGGC (site GTCCTGCCTGC),0
9,GTCGAATCATGGACCGGTTTTCCCGGTAATCCGTATTTGGT (site GTCGAATCTAC),2.07
10,GTCGCCCCATGGACCGGTTTTCCCGGTAATCCGTATTTGGC (site GTCGCCCCTGC),0
11,GTCGCGTCATGGACCGGTTTTCCCGGTAATCCGTATTTGGA (site GTCGCGTCTTC),1.24
12,GTCGGCCCATGGACCGGTTTTCCCGGTAATCCGTATTTGTG (site GTCGGCCCTCA),0.00361
13,GTCGGGGCATGGACCGGTTTTCCCGGTAATCCGTATTTGTT (site GTCGGGGCTAA),0.949
14,GTCGTATCATGGACCGGTTTTCCCGGTAATCCGTATTTGTC (site GTCGTATCTGA),2.7
15,GTCTAACCATGGACCGGTTTTCCCGGTAATCCGTATTTGTC (site GTCTAACCTGA),0
16,GTCTACACATGGACCGGTTTTCCCGGTAATCCGTATTTGAG (site GTCTACACTCT),0.832
17,GTCTACACATGGACCGGTTTTCCCGGTAATCCGTATTTGCT (site ATCTACACTAG),1.33
18,GTCTACACATGGACCGGTTTTCCCGGTAATCCGTATTTGCT (site CTCTACACTAG),1.44
19,GTCTACACATGGACCGGTTTTCCCGGTAATCCGTATTTGCT (site GTCTACACTAG),2.05
20,GTCTACACATGGACCGGTTTTCCCGGTAATCCGTATTTGCT (site TTCTACACTAG),1.44
21,GTCTAGACATGGACCGGTTTTCCCGGTAATCCGTATTTGCA (site GTCTAGACTTG),2.13
22,GTCTGCCCATGGACCGGTTTTCCCGGTAATCCGTATTTGCG (site GTCTGCCCTCG),0.0315
23,GTCTTCCCATGGACCGGTTTTCCCGGTAATCCGTATTTGCA (site GTCTTCCCTTG),0
24,GTGAAGACATGGACCGGTTTTCCCGGTAATCCGTATTTGCA (site AGGAAGACTTG),1.26
25,GTGAAGACATGGACCGGTTTTCCCGGTAATCCGTATTTGCA (site GTGAAGACTTG),2.72

row,Sequence,recombinant UMI read abundance (log10)
1,GTGACAACATGGACCGGTTTTCCCGGTAATCCGTATTTGAC (site GTGACAACTGT),2.91
2,GTGACACCATGGACCGGTTTTCCCGGTAATCCGTATTTGTT (site GTGACACCTAA),0.00775
3,GTGACCCCATGGACCGGTTTTCCCGGTAATCCGTATTTGCC (site GTGACCCCTGG),1.83
4,GTGCAAACATGGACCGGTTTTCCCGGTAATCCGTATTTGTG (site GTGCAAACTCA),2.04
5,GTGCATCCATGGACCGGTTTTCCCGGTAATCCGTATTTGCA (site GTGCATCCTTG),1.03
6,GTGCATGCATGGACCGGTTTTCCCGGTAATCCGTATTTGGA (site GTGCATGCTAC),0.00401
7,GTGCATGCATGGACCGGTTTTCCCGGTAATCCGTATTTGGA (site GTGCATGCTCC),0.296
8,GTGCATGCATGGACCGGTTTTCCCGGTAATCCGTATTTGGA (site GTGCATGCTGC),0
9,GTGCATGCATGGACCGGTTTTCCCGGTAATCCGTATTTGGA (site GTGCATGCTTC),1.28
10,GTGCATGCATGGACCGGTTTTCCCGGTAATCCGTATTTGGC (site GTGCATGCTAC),0.31
11,GTGCATGCATGGACCGGTTTTCCCGGTAATCCGTATTTGGC (site GTGCATGCTCC),0
12,GTGCATGCATGGACCGGTTTTCCCGGTAATCCGTATTTGGC (site GTGCATGCTGC),2.28
13,GTGCATGCATGGACCGGTTTTCCCGGTAATCCGTATTTGGC (site GTGCATGCTTC),0.89
14,GTGCATGCATGGACCGGTTTTCCCGGTAATCCGTATTTGGT (site ATGCATGCTAC),0.986
15,GTGCATGCATGGACCGGTTTTCCCGGTAATCCGTATTTGGT (site CTGCATGCTAC),0.457
16,GTGCATGCATGGACCGGTTTTCCCGGTAATCCGTATTTGGT (site GAGCATGCTAC),0.0372
17,GTGCATGCATGGACCGGTTTTCCCGGTAATCCGTATTTGGT (site GCGCATGCTAC),0.271
18,GTGCATGCATGGACCGGTTTTCCCGGTAATCCGTATTTGGT (site GGGCATGCTAC),0.00487
19,GTGCATGCATGGACCGGTTTTCCCGGTAATCCGTATTTGGT (site GTACATGCTAC),1.47
20,GTGCATGCATGGACCGGTTTTCCCGGTAATCCGTATTTGGT (site GTCCATGCTAC),0.00812
21,GTGCATGCATGGACCGGTTTTCCCGGTAATCCGTATTTGGT (site GTGAATGCTAC),0
22,GTGCATGCATGGACCGGTTTTCCCGGTAATCCGTATTTGGT (site GTGCAAGCTAC),0.00542
23,GTGCATGCATGGACCGGTTTTCCCGGTAATCCGTATTTGGT (site GTGCACGCTAC),0.586
24,GTGCATGCATGGACCGGTTTTCCCGGTAATCCGTATTTGGT (site GTGCAGGCTAC),0.384
25,GTGCATGCATGGACCGGTTTTCCCGGTAATCCGTATTTGGT (site GTGCATACTAC),1.69

row,Sequence,recombinant UMI read abundance (log10)
1,GTGCATGCATGGACCGGTTTTCCCGGTAATCCGTATTTGGT (site GTGCATCCTAC),0.318
2,GTGCATGCATGGACCGGTTTTCCCGGTAATCCGTATTTGGT (site GTGCATGCTAA),0.0107
3,GTGCATGCATGGACCGGTTTTCCCGGTAATCCGTATTTGGT (site GTGCATGCTAC),0.978
4,GTGCATGCATGGACCGGTTTTCCCGGTAATCCGTATTTGGT (site GTGCATGCTAG),0.442
5,GTGCATGCATGGACCGGTTTTCCCGGTAATCCGTATTTGGT (site GTGCATGCTAT),1.47
6,GTGCATGCATGGACCGGTTTTCCCGGTAATCCGTATTTGGT (site GTGCATGCTCC),0.0111
7,GTGCATGCATGGACCGGTTTTCCCGGTAATCCGTATTTGGT (site GTGCATGCTGC),0.451
8,GTGCATGCATGGACCGGTTTTCCCGGTAATCCGTATTTGGT (site GTGCATGCTTC),0.0184
9,GTGCATGCATGGACCGGTTTTCCCGGTAATCCGTATTTGGT (site GTGCATTCTAC),0
10,GTGCATGCATGGACCGGTTTTCCCGGTAATCCGTATTTGGT (site GTGCCTGCTAC),1.15
11,GTGCATGCATGGACCGGTTTTCCCGGTAATCCGTATTTGGT (site GTGCGTGCTAC),0.276
12,GTGCATGCATGGACCGGTTTTCCCGGTAATCCGTATTTGGT (site GTGCTTGCTAC),0.00578
13,GTGCATGCATGGACCGGTTTTCCCGGTAATCCGTATTTGGT (site GTGGATGCTAC),0.00465
14,GTGCATGCATGGACCGGTTTTCCCGGTAATCCGTATTTGGT (site GTGTATGCTAC),0.469
15,GTGCATGCATGGACCGGTTTTCCCGGTAATCCGTATTTGGT (site GTTCATGCTAC),0.448
16,GTGCATGCATGGACCGGTTTTCCCGGTAATCCGTATTTGGT (site TTGCATGCTAC),0.412
17,GTGCGATCATGGACCGGTTTTCCCGGTAATCCGTATTTGAC (site GTGCGATCTGT),1.92
18,GTGCGGGCATGGACCGGTTTTCCCGGTAATCCGTATTTGGT (site GTGCGGGCTAC),0.486
19,GTGCTACCATGGACCGGTTTTCCCGGTAATCCGTATTTGCT (site ATGCTACCTAG),0
20,GTGCTACCATGGACCGGTTTTCCCGGTAATCCGTATTTGCT (site CTGCTACCTAG),0
21,GTGCTACCATGGACCGGTTTTCCCGGTAATCCGTATTTGCT (site GTGCTACCTAG),0.0199
22,GTGCTACCATGGACCGGTTTTCCCGGTAATCCGTATTTGCT (site TTGCTACCTAG),0
23,GTGCTCTCATGGACCGGTTTTCCCGGTAATCCGTATTTGTG (site GTGCTCTCTCA),1.28
24,GTGCTGCCATGGACCGGTTTTCCCGGTAATCCGTATTTGTG (site GTGCTGCCTCA),0.251
25,GTGCTGGCATGGACCGGTTTTCCCGGTAATCCGTATTTGGT (site GTGCTGGCTAC),0.476

# — the supplement of paper PMC11208160
